Assay results published in US5077277A, “Chemical derivatives of antibiotics LL-E19020 alpha and beta” (American Cyanamid Company, priority 1989, dated 1991).

Columns and labels:
Format in all cases: cell-based
Conditions in all cases: 18 hours incubation
[1] = test system: Streptococcus b-hemolyticus C 203; test: In vitro antibacterial activity, standard agar dilution (MIC)
[2] = test system: Streptococcus b-hemolyticus VGH 84-60; test: as above
[3] = test system: Streptococcus b-hemolyticus VGH 0.5; test: as above
[4] = test system: Streptococcus b-hemolyticus VGH 84-62; test: as above
[5] = test system: Streptococcus pneumoniae SV-1; test: as above
[6] = test system: Streptococcus pneumoniae K 84-21; test: as above
[7] = test system: Bacteroides vulgaris ATCC 29327; test: as above
[8] = test system: Clostridium perfringens ATCC 13124
[9] = test system: Clostridium difficile ATCC 17858; test: In vitro antibacterial activity, standard agar dilution (MIC)
[10] = test system: Peptococcus magnus ATCC 29328; test: as above
[11] = test system: Peptococcus magnus ATCC 14956; test: as above
[12] = test system: Peptococcus asaccharolyticus ATCC 29743; test: as above

| Compound | Minimal Inhibitory Concentration [1] | Minimal Inhibitory Concentration [2] | Minimal Inhibitory Concentration [3] | Minimal Inhibitory Concentration [4] | Minimal Inhibitory Concentration [5] | Minimal Inhibitory Concentration [6] | Minimal Inhibitory Concentration [7] | Minimal Inhibitory Concentration [8] | Minimal Inhibitory Concentration [9] | Minimal Inhibitory Concentration [10] | Minimal Inhibitory Concentration [11] | Minimal Inhibitory Concentration [12] |
| --- | --- | --- | --- | --- | --- | --- | --- | --- | --- | --- | --- | --- |
| C/C=C\C=C\C1OC(O)(C(CNC(=O)Cc2ccccc2)C(=O)NC/C=C/C=C(\C)C(OC)C(C)C2CC(O)C(/C=C/C=C/C=C/C(=O)O)O2)C(O)C(O)C1(C)C (stereo not drawn) [Compound I, Ammonolysis Product of LL-E19020 α and β] | 8 µg/mL | 4 µg/mL | 16 µg/mL | 16 µg/mL | 64 µg/mL | > 128 µg/mL | 128 µg/mL | > 128 µg/mL | 4 µg/mL | 0.25 µg/mL | ≤ 0.06 µg/mL | 0.25 µg/mL |
| Aglycone Methyl Ester of LL-E19020β [Compound VI] | > 128 µg/mL | > 128 µg/mL | > 128 µg/mL | > 128 µg/mL | > 128 µg/mL | > 128 µg/mL | > 128 µg/mL | > 128 µg/mL | – | 0.5 µg/mL | 0.5 µg/mL | 0.5 µg/mL |
| Methyl Ester of LL-E19020α [Compound II] | 0.12 µg/mL | 0.5 µg/mL | 2 µg/mL | 2 µg/mL | 4 µg/mL | 8 µg/mL | 128 µg/mL | 64 µg/mL | 2 µg/mL | ≤ 0.06 µg/mL | ≤ 0.06 µg/mL | ≤ 0.06 µg/mL |
| Methyl Ester of LL-E19020β [Compound III] | 2 µg/mL | 2 µg/mL | 8 µg/mL | 8 µg/mL | 8 µg/mL | 32 µg/mL | 16 µg/mL | > 128 µg/mL | 8 µg/mL | ≤ 0.06 µg/mL | ≤ 0.06 µg/mL | ≤ 0.06 µg/mL |
| Monosaccharide of Methyl Ester of LL-E19020α [Compound IV] | 4 µg/mL | 2 µg/mL | 8 µg/mL | 8 µg/mL | 16 µg/mL | 16 µg/mL | > 128 µg/mL | > 128 µg/mL | 8 µg/mL | ≤ 0.06 µg/mL | ≤ 0.06 µg/mL | ≤ 0.06 µg/mL |
| Monosaccharide of Methyl Ester of LL-E19020β [Compound V] | 8 µg/mL | 8 µg/mL | 32 µg/mL | 32 µg/mL | 32 µg/mL | 64 µg/mL | > 128 µg/mL | > 128 µg/mL | 64 µg/mL | ≤ 0.06 µg/mL | ≤ 0.06 µg/mL | ≤ 0.06 µg/mL |
